Biological target: T1, TACE (ADAM17) (Homo sapiens, UniProt P78536)
T1 construct: made in house; host or cells: mammalian cells or insect cells
Assay: TACE (ADAM17) inhibition test
Type: biochemical
Settings: fluorescent synthetic substrate, 37° C. for 1.5 hours; read-out: TACE IC50
Excerpt: The nucleotide sequence of TACE has been reported by Moss et al. (Moss, M. L. et al., Nature 1997, vol. 385, pp. 733-736). Based on this information, the cDNA of TACE was obtained according to the prescribed method from THP-1 cells or the like, and then incorporated the cDNA into an expression vector. Next, this vector was transformed into mammalian cells or insect cells, and TACE protein was expressed. The TACE protein was isolated, and used as an enzyme. Further, a fluorescent synthetic substrate Nma(N-methylanthranilic acid)-Leu-Ala-Gln-Ala-Val-Arg-Ser-Ser-Lys(Dnp(dinitrophenyl))-D-Arg-NH2 including the TACE-cleaved sequence of a membrane-bound TNF was used as a substrate. The enzyme reaction was carried out by adding 1.8 μL of a solution of the test substance to 90 μL of a fluorescent synthetic substrate prepared with an assay buffer B (50 mM tris-hydrochloric acid buffer (pH 7.5) including 200 mM sodium chloride, 5 mM calcium chloride, 10 μM zinc sulfate, and 0.05% PLURONIC F-68), then mixing 90 μL of a TACE enzyme solution prepared with an assay buffer A (50 mM tris-hydrochloric acid buffer (pH 7.5) including 200 mM sodium chloride, 5 mM calcium chloride, 10 μM zinc sulfate, and 2 mg/mL bovine serum albumin) and reacting at 37° C. for 1.5 hours. Enzyme activity was then determined by measuring with a fluorescence intensity meter (Labsystems, Fluoroskan Ascent) at an excitation wavelength of 355 nm and a measurement wavelength of 460 nm. The 50% inhibitory concentration (IC50) of the test substances was calculated by comparing enzyme activity in the presence and the absence of the test substance to determine the inhibition rate. Further, test substances having an IC50 strength of less than 100 nM were evaluated as “A”, and test substances having an IC50 strength of 100 nM or more were evaluated as “B”.

T1 sequence (P78536 215-824): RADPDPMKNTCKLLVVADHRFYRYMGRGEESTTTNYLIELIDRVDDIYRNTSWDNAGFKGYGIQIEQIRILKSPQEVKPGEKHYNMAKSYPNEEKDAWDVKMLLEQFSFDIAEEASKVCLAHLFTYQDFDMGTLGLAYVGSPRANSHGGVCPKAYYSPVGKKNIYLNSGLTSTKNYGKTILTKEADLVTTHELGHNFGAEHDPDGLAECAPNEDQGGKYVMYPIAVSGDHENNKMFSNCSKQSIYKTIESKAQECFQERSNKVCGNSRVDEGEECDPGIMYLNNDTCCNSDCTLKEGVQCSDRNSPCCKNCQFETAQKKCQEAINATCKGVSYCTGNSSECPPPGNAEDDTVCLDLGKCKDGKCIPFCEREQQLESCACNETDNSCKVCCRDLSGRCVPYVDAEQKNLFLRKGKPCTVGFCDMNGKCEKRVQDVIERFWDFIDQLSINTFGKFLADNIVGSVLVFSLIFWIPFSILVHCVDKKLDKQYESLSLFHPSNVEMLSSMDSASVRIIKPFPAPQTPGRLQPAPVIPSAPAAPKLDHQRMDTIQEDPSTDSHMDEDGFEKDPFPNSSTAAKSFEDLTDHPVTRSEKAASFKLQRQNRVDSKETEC

Row | Structure (SMILES) | IC50 [nM]
1 | Cc1cccn(CC2(c3ccccn3)NC(=O)NC2=O)c1=O (racemic) [Compound I-7, 5-[(3-methyl-2-oxopyridin-1(2H)-yl)methyl]-5-(pyridin-2-yl)imidazolidine-2,4-dione] | < 100
2 | O=C1NC(=O)C(Cn2cccc(F)c2=O)(c2ccc3ccccc3c2)N1 (racemic) [Compound I-135] | < 100
3 | Cc1cccn(CC2(c3ccc(Cl)c(Cl)c3)NC(=O)NC2=O)c1=O (racemic) [Compound I-125] | < 100
4 | Cc1cccn(CC2(c3ccsc3)NC(=O)NC2=O)c1=O (racemic) [Compound I-5, 5-[(3-methyl-2-oxopyridin-1(2H)-yl)methyl]-5-(thiophen-3-yl)imidazolidine-2,4-dione] | < 100
5 | Cc1cccn(CC2(c3ccc(OC(F)(F)F)cc3)NC(=O)NC2=O)c1=O (racemic) [Compound I-79] | < 100
6 | Cc1cccn(CC2(c3ccc(Oc4ccc(F)cc4)cc3)NC(=O)NC2=O)c1=O (racemic) [Compound I-85] | < 100
7 | O=C1NC(=O)C(Cn2cccc(Cl)c2=O)(c2ccc(F)cc2)N1 (racemic) [Compound I-136] | < 100
8 | Cc1cccn(CC2(c3ccc(OCc4ccc(F)cc4)cc3)NC(=O)NC2=O)c1=O (racemic) [Compound I-88] | < 100
9 | Cc1cc(C2(Cn3cccc(C)c3=O)NC(=O)NC2=O)ccc1OC1CCCC1 (racemic) [Compound I-39, 5-[4-(cyclopentyloxy)-3-methylphenyl]-5-[(3-methyl-2-oxopyridin-1(2H)-yl)methyl]imidazolidine-2,4-dione] | < 100
10 | Cc1cccn(CC2(c3ccc(Br)cc3)NC(=O)NC2=O)c1=O (racemic) [Compound I-11, 5-(4-bromophenyl)-5-[(3-methyl-2-oxopyridin-1(2H)-yl)methyl]imidazolidine-2,4-dione] | < 100
11 | Cc1cccn(CC2(c3ccc(F)cc3F)NC(=O)NC2=O)c1=O (racemic) [Compound I-61] | ≥ 100
12 | COc1ccc(C2(Cn3cccc(Br)c3=O)NC(=O)NC2=O)cc1 (racemic) [Compound I-52, 5-[(3-bromo-2-oxopyridin-1(2H)-yl)methyl]-5-(4-methoxyphenyl)imidazolidine-2,4-dione] | < 100
13 | Cc1cccn(CC2(c3ccc4c(c3)OCO4)NC(=O)NC2=O)c1=O (racemic) [Compound I-65] | < 100
14 | COc1ccc(C2(Cn3cccc(C(F)(F)F)c3=O)NC(=O)NC2=O)cc1 (racemic) [Compound I-141] | < 100
15 | O=C1NC(=O)C(Cn2cccc(CO)c2=O)(c2ccc(Cc3ccccc3)cc2)N1 (racemic) [Compound I-151] | ≥ 100
16 | Cc1cccn(CC2(c3ccc(-c4ccccn4)cc3)NC(=O)NC2=O)c1=O (racemic) [Compound I-92] | < 100
17 | COc1cccc(Oc2ccc(C3(Cn4cccc(C)c4=O)NC(=O)NC3=O)cc2)c1 (racemic) [Compound I-83] | < 100
18 | Cc1cccn(CC2(c3cccnc3)NC(=O)NC2=O)c1=O (racemic) [Compound I-8, 5-[(3-methyl-2-oxopyridin-1(2H)-yl)methyl]-5-(pyridin-3-yl)imidazolidine-2,4-dione] | < 100
19 | Cc1cccn(CC2(c3ccc(OC4C=CCCC4)cc3)NC(=O)NC2=O)c1=O (racemic) [Compound I-36, 5-[4-(cyclohex-2-en-1-yloxy)phenyl]-5-[(3-methyl-2-oxopyridin-1(2H)-yl)methyl]imidazolidine-2,4-dione] | < 100
20 | Cc1cccn(CC2(c3ccc(Oc4ccccc4)c(Cl)c3)NC(=O)NC2=O)c1=O (racemic) [Compound I-123] | < 100
21 | Cc1cccn(CC2(c3ccc(C#Cc4ccccn4)cc3)NC(=O)NC2=O)c1=O (racemic) [Compound I-110] | < 100
22 | COc1ccc(Cl)cc1C1(Cn2cccc(C)c2=O)NC(=O)NC1=O (racemic) [Compound I-27, 5-(5-chloro-2-methoxyphenyl)-5-[(3-methyl-2-oxopyridin-1(2H)-yl)methyl]imidazolidine-2,4-dione] | < 100
23 | COc1ccc(OC(F)(F)F)cc1C1(Cn2cccc(C)c2=O)NC(=O)NC1=O (racemic) [Compound I-24, 5-[2-methoxy-5-(trifluoromethoxy)phenyl]-5-[(3-methyl-2-oxopyridin-1(2H)-yl)methyl]imidazolidine-2,4-dione] | ≥ 100
24 | Cc1cccn(CC2(c3ccc(OC(C)C)cc3)NC(=O)NC2=O)c1=O (racemic) [Compound I-120] | < 100

Row | Structure (SMILES) | IC50 [nM]
25 | O=C1NC(=O)C(Cn2cccc(F)c2=O)(c2ccc(Cc3ccccc3)cc2)N1 (racemic) [Compound I-152] | ≥ 100
26 | Cc1cccn(CC2(c3ccc(C#CC(C)(C)C)cc3)NC(=O)NC2=O)c1=O (racemic) [Compound I-33, 5-[4-(3,3-dimethylbut-1-yn-1-yl)phenyl]-5-[(3-methyl-2-oxopyridin-1(2H)-yl)methyl]imidazolidine-2,4-dione] | < 100
27 | Cc1cccn(CC2(c3cccc(C(F)(F)F)c3)NC(=O)NC2=O)c1=O (racemic) [Compound I-19] | < 100
28 | Cc1cccn(CC2(c3ccc(C#N)cc3)NC(=O)NC2=O)c1=O (racemic) [Compound I-3, 4-{4-[(3-methyl-2-oxopyridin-1(2H)-yl)methyl]-2,5-dioxoimidazolidine-4-yl}benzonitrile] | < 100
29 | Cc1cccn(CC2(c3ccc(CCC4CCCCC4)cc3)NC(=O)NC2=O)c1=O (racemic) [Compound I-118] | ≥ 100
30 | O=C1NC(=O)C(Cn2cccc(F)c2=O)(c2ccc(F)c(F)c2)N1 (racemic) [Compound I-145] | < 100
31 | C=C(C)c1cccn(CC2(c3ccc(OC)cc3)NC(=O)NC2=O)c1=O (racemic) [Compound I-144] | ≥ 100
32 | Cc1cccn(CC2(c3ccc(Sc4ccccc4)cc3)NC(=O)NC2=O)c1=O (racemic) [Compound I-102] | < 100
33 | O=C1NC(=O)C(Cn2ccccc2=O)(c2cc(F)c(F)c(F)c2)N1 (racemic) [Compound I-157] | < 100
34 | Cc1cccn(CC2(c3ccc(C(C)(C)C)cc3)NC(=O)NC2=O)c1=O (racemic) [Compound I-17, 5-[4-(tert-butyl)phenyl]-5-[(3-methyl-2-oxopyridin-1(2H)-yl)methyl]imidazolidine-2,4-dione] | < 100
35 | Cc1cccn(CC2(c3cccc(-c4ccccc4)c3)NC(=O)NC2=O)c1=O (racemic) [Compound I-96] | < 100
36 | Cc1cccn(CC2(c3ccc(-c4cccnc4)cc3)NC(=O)NC2=O)c1=O (racemic) [Compound I-32, 5-[(3-methyl-2-oxopyridin-1(2H)-yl)methyl]-5-[4-(pyridin-3-yl)phenyl]imidazolidine-2,4-dione] | < 100
37 | N#Cc1ccc(C2(Cn3cccc(C(F)(F)F)c3=O)NC(=O)NC2=O)cc1 (racemic) [Compound I-142] | < 100
38 | COc1ccccc1Oc1ccc(C2(Cn3cccc(C)c3=O)NC(=O)NC2=O)cc1F (racemic) [Compound I-114] | < 100
39 | Cc1cccn(CC2(c3ccc(Oc4cccc(F)c4)cc3)NC(=O)NC2=O)c1=O (racemic) [Compound I-84] | < 100
40 | COc1ccccc1-c1ccc(C2(Cn3cccc(C)c3=O)NC(=O)NC2=O)cc1 (racemic) [Compound I-74] | < 100
41 | COc1ccc(C2(Cn3cccc(C)c3=O)NC(=O)NC2=O)cc1 (racemic) [Compound I-2, 5-(4-methoxyphenyl)-5-[(3-methyl-2-oxopyridin-1(2H)-yl)methyl]imidazolidine-2,4-dione] | < 100
42 | Cc1cccn(CC2(c3ccc(Cc4ccc(F)cc4)cc3)NC(=O)NC2=O)c1=O (racemic) [Compound I-41, 5-[4-(4-fluorobenzyl)phenyl]-5-[(3-methyl-2-oxopyridin-1(2H)-yl)methyl]imidazolidine-2,4-dione] | < 100
43 | Cc1cccn(CC2(c3ccc4c(c3)OCCO4)NC(=O)NC2=O)c1=O (racemic) [Compound I-59] | < 100
44 | Cc1cccn(CC2(c3ccc(OC4CCCCC4)cc3)NC(=O)NC2=O)c1=O (racemic) [Compound I-37, 5-[4-(cyclohexyloxy)phenyl]-5-[(3-methyl-2-oxopyridin-1(2H)-yl)methyl]imidazolidine-2,4-dione] | < 100
45 | CCc1cccn(CC2(c3ccc(OC)cc3)NC(=O)NC2=O)c1=O (racemic) [Compound I-53, 5-[(3-ethyl-2-oxopyridin-1(2H)-yl)methyl]-5-(4-methoxyphenyl)imidazolidine-2,4-dione] | ≥ 100
46 | Cc1cccn(CC2(c3ccc(OC4CCCC4)cc3)NC(=O)NC2=O)c1=O (racemic) [Compound I-124] | < 100
47 | O=C1NC(=O)C(Cn2cccc(Cl)c2=O)(c2ccc(F)c(F)c2)N1 (racemic) [Compound I-146] | < 100
48 | Cc1cccn(CC2(c3cccc(OC(F)(F)F)c3)NC(=O)NC2=O)c1=O (racemic) [Compound I-67] | < 100

From US20160168540A1, “COMPOSITION FOR MAINTAINING PLATELET FUNCTION” (KYOTO UNIVERSITY, priority 2013, published 2016)
